Results reported in the supplement of paper PMC13207355.
± gives the standard deviation of the averaged measurements.

Experiments:
Settings in all cases: exposure time: 72 h
[1] = test system: E21 (patient-derived glioblastoma stem cells of mesenchymal subtype); experiment: surviving fraction (nuclei count normalised to DMSO); higher = more cells surviving (less toxic)
[2] = test system: E57 (patient-derived glioblastoma stem cells of mesenchymal subtype); experiment: as above
[3] = test system: E13 (patient-derived glioblastoma stem cells of classical subtype); experiment: as above
[4] = test system: E31 (patient-derived glioblastoma stem cells of proneural subtype); experiment: as above
[5] = test system: E34 (patient-derived glioblastoma stem cells of proneural subtype); experiment: as above
[6] = test system: FT3469 (normal neural stem cell line); experiment: as above
[7] = test system: E28 (patient-derived glioblastoma stem cells of classical subtype); experiment: as above
[8] = test system: E21; experiment: phenotypic distance (Euclidean, principal components) from DMSO controls (arbitrary units); higher = stronger morphological change
[9] = test system: E57; experiment: as above
[10] = test system: E13; experiment: as above
[11] = test system: E31; experiment: as above
[12] = test system: E34; experiment: as above
[13] = test system: FT3469; experiment: as above
[14] = test system: E28; experiment: as above
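For phenotypic distance (Euclidean, principal components) from DMSO controls in this document: cell Painting imaging in 384-well plates, CellProfiler features reduced to at least 20 principal components, Euclidean distance versus same-plate DMSO vehicle wells (0.1% v/v), median over six images per well.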
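For surviving fraction (nuclei count normalised to DMSO) in this document: nuclei counted by high-content imaging of Hoechst-stained cells in laminin-coated 384-well plates, relative to 0.1% DMSO vehicle wells, with staurosporine as cell-death control.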

## COC(=O)Nc1nc2cc(C(=O)c3cccs3)ccc2[nH]1 [Nocodazole]
[1]; 4.11523 nM
  surviving fraction: 0.506
[1]; 12.34567901 nM
  surviving fraction: 0.54
[1]; 37.037 nM
  surviving fraction: 0.116
[1]; 111.1111111 nM
  surviving fraction: 0.101
[1]; 333.333 nM
  surviving fraction: 0.118
[1]; 1000 nM
  surviving fraction: 0.0883
[1]; 3000 nM
  surviving fraction: 0.083
[2]; 4.11523 nM
  surviving fraction: 0.452
[2]; 12.34567901 nM
  surviving fraction: 0.418
[2]; 37.037 nM
  surviving fraction: 0.143
[2]; 111.1111111 nM
  surviving fraction: 0.067
[2]; 333.333 nM
  surviving fraction: 0.0805
[2]; 1000 nM
  surviving fraction: 0.0687
[2]; 3000 nM
  surviving fraction: 0.104
[3]; 4.11523 nM
  surviving fraction: 0.286
[3]; 12.34567901 nM
  surviving fraction: 0.309
[3]; 37.037 nM
  surviving fraction: 0.238
[3]; 111.1111111 nM
  surviving fraction: 0.193
[3]; 333.333 nM
  surviving fraction: 0.228
[3]; 1000 nM
  surviving fraction: 0.186
[3]; 3000 nM
  surviving fraction: 0.178
[4]; 4.11523 nM
  surviving fraction: 0.262
[4]; 12.34567901 nM
  surviving fraction: 0.174
[4]; 37.037 nM
  surviving fraction: 0.135
[4]; 111.1111111 nM
  surviving fraction: 0.0743
[4]; 333.333 nM
  surviving fraction: 0.0743
[4]; 1000 nM
  surviving fraction: 0.058
[4]; 3000 nM
  surviving fraction: 0.0327
[5]; 4.11523 nM
  surviving fraction: 0.543
[5]; 12.34567901 nM
  surviving fraction: 0.541
[5]; 37.037 nM
  surviving fraction: 0.488
[5]; 111.1111111 nM
  surviving fraction: 0.469
[5]; 333.333 nM
  surviving fraction: 0.394
[5]; 1000 nM
  surviving fraction: 0.316
[5]; 3000 nM
  surviving fraction: 0.433
[6]; 4.11523 nM
  surviving fraction: 0.562
[6]; 12.34567901 nM
  surviving fraction: 0.573
[6]; 37.037 nM
  surviving fraction: 0.619
[6]; 111.1111111 nM
  surviving fraction: 0.474
[6]; 333.333 nM
  surviving fraction: 0.582
[6]; 1000 nM
  surviving fraction: 0.382
[6]; 3000 nM
  surviving fraction: 0.353
[7]; 4.11523 nM
  surviving fraction: 0.698
[7]; 12.34567901 nM
  surviving fraction: 0.609
[7]; 37.037 nM
  surviving fraction: 0.531
[7]; 111.1111111 nM
  surviving fraction: 0.353
[7]; 333.333 nM
  surviving fraction: 0.428
[7]; 1000 nM
  surviving fraction: 0.267
[7]; 3000 nM
  surviving fraction: 0.297
[8]; 4.11523 nM
  phenotypic distance: 4.87
[8]; 12.34567901 nM
  phenotypic distance: 4.76
[8]; 37.037 nM
  phenotypic distance: 8.31
[8]; 111.1111111 nM
  phenotypic distance: 9.95
[8]; 333.333 nM
  phenotypic distance: 9.8
[8]; 1000 nM
  phenotypic distance: 8.46
[8]; 3000 nM
  phenotypic distance: 9.75
[9]; 4.11523 nM
  phenotypic distance: 5.26
[9]; 12.34567901 nM
  phenotypic distance: 5.57
[9]; 37.037 nM
  phenotypic distance: 7.85
[9]; 111.1111111 nM
  phenotypic distance: 6.23
[9]; 333.333 nM
  phenotypic distance: 6.48
[9]; 1000 nM
  phenotypic distance: 6.95
[9]; 3000 nM
  phenotypic distance: 6.12
[10]; 4.11523 nM
  phenotypic distance: 6.13
[10]; 12.34567901 nM
  phenotypic distance: 4.73
[10]; 37.037 nM
  phenotypic distance: 5.56
[10]; 111.1111111 nM
  phenotypic distance: 6.89
[10]; 333.333 nM
  phenotypic distance: 6.42
[10]; 1000 nM
  phenotypic distance: 6.56
[10]; 3000 nM
  phenotypic distance: 9.87
[11]; 4.11523 nM
  phenotypic distance: 4.08
[11]; 12.34567901 nM
  phenotypic distance: 3.99
[11]; 37.037 nM
  phenotypic distance: 5.49
[11]; 111.1111111 nM
  phenotypic distance: 6.17
[11]; 333.333 nM
  phenotypic distance: 5.43
[11]; 1000 nM
  phenotypic distance: 11.1
[11]; 3000 nM
  phenotypic distance: 12
[12]; 4.11523 nM
  phenotypic distance: 3.24
[12]; 12.34567901 nM
  phenotypic distance: 3.27
[12]; 37.037 nM
  phenotypic distance: 4.43
[12]; 111.1111111 nM
  phenotypic distance: 4.49
[12]; 333.333 nM
  phenotypic distance: 5.97
[12]; 1000 nM
  phenotypic distance: 8.12
[12]; 3000 nM
  phenotypic distance: 7.56
[13]; 4.11523 nM
  phenotypic distance: 3.38
[13]; 12.34567901 nM
  phenotypic distance: 3.38
[13]; 37.037 nM
  phenotypic distance: 3.11
[13]; 111.1111111 nM
  phenotypic distance: 2.9
[13]; 333.333 nM
  phenotypic distance: 3.84
[13]; 1000 nM
  phenotypic distance: 5.03
[13]; 3000 nM
  phenotypic distance: 4.79
[14]; 4.11523 nM
  phenotypic distance: 2.22
[14]; 12.34567901 nM
  phenotypic distance: 2.63
[14]; 37.037 nM
  phenotypic distance: 2.97
[14]; 111.1111111 nM
  phenotypic distance: 3.74
[14]; 333.333 nM
  phenotypic distance: 3.59
[14]; 1000 nM
  phenotypic distance: 4.6
[14]; 3000 nM
  phenotypic distance: 5.85

## CC(=O)c1cnc2ccc(-c3cc(Cl)c(O)c(Cl)c3)nc2c1N[C@H]1CC[C@H](CN(C)C)CC1 [OTSSP167]
[1]; 0.4 nM
  surviving fraction: 0.988 ± 0.14
[1]; 1.2 nM
  surviving fraction: 1.09 ± 0.052
[1]; 3.7 nM
  surviving fraction: 0.945 ± 0.04
[1]; 11.1 nM
  surviving fraction: 0.737 ± 0.1
[1]; 33.3 nM
  surviving fraction: 0.546 ± 0.034
[1]; 100 nM
  surviving fraction: 0.317 ± 0.0045
[1]; 300 nM
  surviving fraction: 0.161 ± 0.039
[2]; 0.4 nM
  surviving fraction: 1.43 ± 0.017
[2]; 1.2 nM
  surviving fraction: 1.46 ± 0.088
[2]; 3.7 nM
  surviving fraction: 1.48 ± 0.057
[2]; 11.1 nM
  surviving fraction: 1.23 ± 0.19
[2]; 33.3 nM
  surviving fraction: 0.626 ± 0.052
[2]; 100 nM
  surviving fraction: 0.171 ± 0.0094
[2]; 300 nM
  surviving fraction: 0.108 ± 0.014
[3]; 0.4 nM
  surviving fraction: 0.96 ± 0.06
[3]; 1.2 nM
  surviving fraction: 0.925 ± 0.12
[3]; 3.7 nM
  surviving fraction: 0.908 ± 0.017
[3]; 11.1 nM
  surviving fraction: 0.685 ± 0.053
[3]; 33.3 nM
  surviving fraction: 0.422 ± 0.024
[3]; 100 nM
  surviving fraction: 0.205 ± 0.014
[3]; 300 nM
  surviving fraction: 0.1423 ± 0.00064
[4]; 0.4 nM
  surviving fraction: 0.94 ± 0.024
[4]; 1.2 nM
  surviving fraction: 0.896 ± 0.042
[4]; 3.7 nM
  surviving fraction: 1.02 ± 0.073
[4]; 11.1 nM
  surviving fraction: 0.913 ± 0.055
[4]; 33.3 nM
  surviving fraction: 0.59 ± 0.046
[4]; 100 nM
  surviving fraction: 0.196 ± 0.02
[4]; 300 nM
  surviving fraction: 0.0607 ± 0.0042
[5]; 0.4 nM
  surviving fraction: 1 ± 0.055
[5]; 1.2 nM
  surviving fraction: 0.983 ± 0.031
[5]; 3.7 nM
  surviving fraction: 0.947 ± 0.15
[5]; 11.1 nM
  surviving fraction: 0.748 ± 0.15
[5]; 33.3 nM
  surviving fraction: 0.535 ± 0.083
[5]; 100 nM
  surviving fraction: 0.567 ± 0.021
[5]; 300 nM
  surviving fraction: 0.384 ± 0.061
[6]; 0.4 nM
  surviving fraction: 1.13 ± 0.11
[6]; 1.2 nM
  surviving fraction: 1.2 ± 0.052
[6]; 3.7 nM
  surviving fraction: 1.08 ± 0.096
[6]; 11.1 nM
  surviving fraction: 0.783 ± 0.13
[6]; 33.3 nM
  surviving fraction: 0.638 ± 0.024
[6]; 100 nM
  surviving fraction: 0.502 ± 0.022
[6]; 300 nM
  surviving fraction: 0.45 ± 0.087
[7]; 0.4 nM
  surviving fraction: 1.04 ± 0.15
[7]; 1.2 nM
  surviving fraction: 1.21 ± 0.084
[7]; 3.7 nM
  surviving fraction: 1.16 ± 0.014
[7]; 11.1 nM
  surviving fraction: 0.994 ± 0.16
[7]; 33.3 nM
  surviving fraction: 0.575 ± 0.0076
[7]; 100 nM
  surviving fraction: 0.247 ± 0.07
[7]; 300 nM
  surviving fraction: 0.233 ± 0.032
[8]; 0.4 nM
  phenotypic distance: 1.7 ± 0.33
[8]; 1.2 nM
  phenotypic distance: 2.06 ± 0.15
[8]; 3.7 nM
  phenotypic distance: 2.41 ± 0.065
[8]; 11.1 nM
  phenotypic distance: 2.49 ± 0.12
[8]; 33.3 nM
  phenotypic distance: 4.22 ± 0.35
[8]; 100 nM
  phenotypic distance: 4.87 ± 0.3
[8]; 300 nM
  phenotypic distance: 6.25 ± 0.65
[9]; 0.4 nM
  phenotypic distance: 1.81 ± 0.58
[9]; 1.2 nM
  phenotypic distance: 2.24 ± 0.063
[9]; 3.7 nM
  phenotypic distance: 2.97 ± 0.38
[9]; 11.1 nM
  phenotypic distance: 3.48 ± 0.47
[9]; 33.3 nM
  phenotypic distance: 4.61 ± 0.12
[9]; 100 nM
  phenotypic distance: 7.8122 ± 0.0049
[9]; 300 nM
  phenotypic distance: 5.83 ± 0.19
[10]; 0.4 nM
  phenotypic distance: 1.66 ± 1
[10]; 1.2 nM
  phenotypic distance: 1.67 ± 0.18
[10]; 3.7 nM
  phenotypic distance: 2.455 ± 0.011
[10]; 11.1 nM
  phenotypic distance: 3.33 ± 0.64
[10]; 33.3 nM
  phenotypic distance: 6.59 ± 0.11
[10]; 100 nM
  phenotypic distance: 7.76 ± 0.18
[10]; 300 nM
  phenotypic distance: 8.64 ± 0.25
[11]; 0.4 nM
  phenotypic distance: 1.92 ± 0.57
[11]; 1.2 nM
  phenotypic distance: 2.29 ± 0.21
[11]; 3.7 nM
  phenotypic distance: 2.8 ± 0.15
[11]; 11.1 nM
  phenotypic distance: 2.81 ± 0.06
[11]; 33.3 nM
  phenotypic distance: 2.5 ± 0.18
[11]; 100 nM
  phenotypic distance: 5.33 ± 0.78
[11]; 300 nM
  phenotypic distance: 7.69 ± 2.1
[12]; 0.4 nM
  phenotypic distance: 1.46 ± 0.39
[12]; 1.2 nM
  phenotypic distance: 1.96 ± 1
[12]; 3.7 nM
  phenotypic distance: 1.73 ± 0.11
[12]; 11.1 nM
  phenotypic distance: 2.43 ± 0.65
[12]; 33.3 nM
  phenotypic distance: 3.89 ± 0.15
[12]; 100 nM
  phenotypic distance: 2.89 ± 0.067
[12]; 300 nM
  phenotypic distance: 2.9 ± 0.41
[13]; 0.4 nM
  phenotypic distance: 2.21 ± 0.61
[13]; 1.2 nM
  phenotypic distance: 2.77 ± 0.063
[13]; 3.7 nM
  phenotypic distance: 3.26 ± 0.47
[13]; 11.1 nM
  phenotypic distance: 3.53 ± 0.41
[13]; 33.3 nM
  phenotypic distance: 4.08 ± 0.32
[13]; 100 nM
  phenotypic distance: 4.14 ± 0.28
[13]; 300 nM
  phenotypic distance: 3.137 ± 0.02
[14]; 0.4 nM
  phenotypic distance: 1.32 ± 0.36
[14]; 1.2 nM
  phenotypic distance: 1.49 ± 0.21
[14]; 3.7 nM
  phenotypic distance: 1.75 ± 0.072
[14]; 11.1 nM
  phenotypic distance: 2.62 ± 0.37
[14]; 33.3 nM
  phenotypic distance: 4.37 ± 0.37
[14]; 100 nM
  phenotypic distance: 4.36 ± 0.64
[14]; 300 nM
  phenotypic distance: 4.295 ± 0.011
